Assay results: article PMC10679740, “Role of peptide–cell surface interactions in cosmetic peptide application” (Frontiers in Pharmacology, 2023)
Structures can show the parent of a compound that is named as a salt. Where two headings read alike, the source gives them in different places. Where a SMILES comes first, the peptide text is derived from it. Where no end group is shown, it is not given here.

Tests used:
[1] = molecular target: T1, Human neutrophil elastase (Homo sapiens, UniProt P08246); assay: Assay of elastase activity (pNA substrate, OD 405 nm); assay type: biochemical; conditions: 2.5 U/mL elastase, 37°C, 2 h time point; for elastase inhibition rate: peptide 200 μg/mL, 5 min preheating
T1 construct: purchased Yuanye Bio Co. (Shanghai)
T1 sequence (P08246 30-267): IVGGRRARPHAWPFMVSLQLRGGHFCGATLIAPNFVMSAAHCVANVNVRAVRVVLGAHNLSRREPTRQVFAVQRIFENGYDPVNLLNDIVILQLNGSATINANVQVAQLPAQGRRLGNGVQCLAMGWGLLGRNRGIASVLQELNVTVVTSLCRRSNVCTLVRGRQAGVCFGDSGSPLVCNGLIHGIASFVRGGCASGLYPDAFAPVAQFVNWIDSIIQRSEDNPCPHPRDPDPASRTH
Experimental: N-Methoxysuccinyl-ala-ala-pro-val-p-nitroanilide (CAS: 70967-90-7) was bought from Sigma Chemical Co. (St. Louis, United States). Sivelestat sodium salt hydrate (S7198, CAS: 201677-61-4) was purchased from Meilun Co. (Dalian). Human neutrophil elastase (30 U/mg) was obtained from Yuanye Bio Co. (Shanghai). p-Nitroanilide (pNA, CAS: […]) was bought from Aladdin Co. (Shanghai). All other chemicals were of analytical grade and purchased from Sigma.
The stock solution (0.1 mg/mL pNA) was prepared in 10% DMSO. The standard curve of pNA was made using the different volumes of stock (200, 150, 100, 50, 30, 20, 10, 5, and 1 μL) mixed with 10% DMSO to reach a final volume of 200 μL. The optical density (OD) of each sample was measured at a wavelength of 405 nm.
Substrates were dissolved in 10% DMSO to form a final concentration of 100 μM. A measure of 100 μL of different concentrations (10, 5, 2.5, 1.25, 0.625, and 0.3125 U/mL) of elastase solution in 10% DMSO was preheated at 37°C for 5 min, and 100 μL of substrate solution was added to start the reaction at 37°C. The absorbance at 405 nm was monitored at 5-min intervals up to a recording time of 2 h at 37°C. A measure of 200 μL of 10% DMSO was taken as a blank control.
A measure of 90 μL of 2.5 U/mL elastase solution together with 10 μL of the sample at a certain concentration was preheated at 37°C for 5 min, and then 100 μL of the substrate was added to initiate a 120 min-reaction at 37°C. The OD was read at 405 nm. A measure of 200 μL of 10% DMSO was used as a blank control; 10 μL of Sivelestat solution at 10 mM was prepared as a positive control; and 10 μL of PBS was added as a negative control that represented the maximum enzyme activity. The inhibition rate of elastase was calculated according to the following formula: inhibition (%) = [1 − (ODsample − ODblank)/(ODneg − ODblank)] × 100%.

chymotrypsin = assay: Proteolytic stability assay; assay type: in vitro ADME; conditions: peptide 1 mg/mL, chymotrypsin 1 mg/mL, 37°C, 0, 1, 2, 4, 8, 16 h (Figure S3: 0-8 h); remaining peptide by C18 RP-HPLC, 220 nm
Experimental: To evaluate the proteolytic stability of peptides against chymotrypsin, the peptides were dissolved to 1 mg/mL and incubated with chymotrypsin (1 mg/mL) at 37°C for different times (0, 1, 2, 4, 8, and 16 h). Afterward, the remaining peptides in the samples were analyzed by C18 reversed-phase high-performance liquid chromatography (HPLC) and detected at 220 nm. The mobile phase of HPLC was a mixture of acetonitrile and deionized water containing 0.1% trifluoroacetic acid.

[2] = In vitro skin permeation test, Franz-type diffusion cells
Experimental: The transdermal delivery of GHK and RGD-GHK was measured through the porcine skin. Permeation experiment was carried out for 24 h at 37 °C with Franz-type diffusion cells. Peptides in collected receptor solutions and skin retention were analyzed by HPLC. […] To further test whether the incorporation of a targeting motif could enhance the binding of chimeric peptides in vivo, we used smearing FITC-peptides at the mouse back for 24 h and tracked the peptide location of the skin slices by fluorescent microscopy.

mouse red blood cells = conditions: 2 mg/mL peptide, 5% (v/v) mouse red blood cells in PBS, 37°C, 1 h, OD 540 nm; repeated five times
Experimental: The blood compatibility of peptides was assessed using mouse red blood cells. The procedure involved obtaining red blood cells by centrifuging mouse blood at 2,000 rpm for 5 min, followed by washing them with PBS three times. The red blood cells were then diluted to a final concentration of 5% (v/v). Then, 2 mg/mL of peptides were added to 1 mL of the red blood cell suspension, and the mixture was incubated at 37°C for 1 h. After incubation, the suspension was centrifuged at 2000 rpm for 5 min, and the supernatant was measured at 540 nm using a microplate reader. The positive control consisted of 0.1% Triton X-100, while PBS served as a negative control. […] The hemolysis percentage was calculated using the following formula: hemolysis (%) = [(ODsample −ODnc)/(ODpc − ODnc)] × 100%.

[3] = tested on: COL-1 of mouse embryonic fibroblasts NIH3T3; assay: Immunofluorescence staining of COL-1; assay type: cell-based; conditions: NIH3T3, pretreatment 4 h (RGD-GHK 200 μg/mL), 400 µM H2O2 2 h, fresh medium 20 h
Experimental: (§1) HFF-1 cells (1.5 × 10^5 cells per well) or mouse embryonic fibroblasts (NIH3T3) were grown on sterile cell slides for 24 h till 80% confluence. A measure of 200 μg/mL of RGD-GHK and GHK solutions was prepared with serum-free DMEM, and the cells were treated with the solutions for 4 h. Then, the solutions were replaced with 400 µM H2O2 and incubated for another 2 h. Then, the fresh culture medium was added to the cells and incubated for another 20 h. Pretreatment without peptides was used as a negative control, while treatment with an anti-aging peptide, acetyl hexapeptide-8 (Wrinklend), was taken as a positive control. The slides were washed three times with PBS, followed by fixation in 500 µL of 4% paraformaldehyde for 15 min at room temperature. After washing with PBS another three times, the cells were permeabilized with 0.5% Triton X-100 for 15 min and washed with PBS repeatedly. The cells were blocked using 1% BSA for 1 h to eliminate non-specific binding. Samples were incubated at 4°C overnight with 100 µL of rabbit monoclonal antibody against type I collagen (COL1A1, 1:100 dilution, CST). […] Then, a fluorescent anti-quenching agent was applied to seal off the slips for 5 min, and the slips were observed using an upright fluorescence microscope.

[4] = tested on: COL-1 of the human fibroblasts HFF-1; assay: Immunofluorescence staining of COL-1; assay type: cell-based; conditions: HFF-1, pretreatment 4 h (RGD-GHK 200 μg/mL), 400 µM H2O2 2 h, fresh medium 20 h
Experimental: as §1

HaCaT cells = assay: Release of lactate dehydrogenase after H2O2 damage; assay type: cell-based, human; conditions: 800 μM H2O2 for 2 h, then fresh medium 18 h, no peptide
Experimental: Lactate dehydrogenase (LDH) activity of the cellular culture was evaluated using an LDH release assay kit (Beyotime). Cells (1 × 10^5 cells per well) were cultured in a 24-well plate for 24 h to reach approximately 80% confluence and then treated either with peptide solution or peptide-free DMEM (positive control, PC). After 4 h incubation, both the peptide solution and peptide-free culture medium were replaced with 250 μL of 800 µM H2O2 and incubated for another 2 h. Then, the cells were incubated with 500 µL of the fresh medium instead of H2O2 for 18 h. Then, 200 µL of the supernatant alone was harvested and mixed with 20 µL of the releasing agent, while the PC medium together with cells was incubated with the equivalent releasing agent. A measure of 200 μL of DMEM alone mixed with 20 µL of the releasing agent was used as a negative control (NC). Then, the solution was incubated at 37°C and 5% CO2 for 1 h and centrifuged at 1,000 rpm for 4 min. A measure of 40 μL suspension per well was pipetted into a 96-well plate and mixed with 20 µL of fresh LDH working solution that was prepared according to the manufacturer’s protocol. The plate was briefly vortexed in the dark for 30 min, and the OD values were measured at 490 nm wavelength. LDH release (%) was expressed via the following equation: LDH (%) = (ODsample − ODnc)/(ODpc − ODnc) × 100%.

HaCaT [5] = assay: Cell apoptosis assay (Annexin V-FITC/PI, FCM); assay type: cell-based, human; conditions: with or without peptide 200 μg/mL 4 h, 800 μM H2O2 2 h, medium 18 h, Figure 4E/G
Experimental: The percentage of early-stage apoptosis and late-stage apoptosis and necrosis of cells induced by H2O2, with or without peptide addition, were determined using an Annexin V-FITC/PI double-staining assay kit (Beyotime). Cells (1×10^5 cells per well) were seeded in a 24-well plate, pretreated with or without peptide solutions, and incubated for 4 h. The peptide solution or culture medium was replaced with 800 μM of H2O2 solution and was incubated for 2 h at 37°C. Then, the cells were incubated only with the complete medium for another 18 h. Non-treated groups were taken as controls. Suspended medium (200 µL) and trypsin-disassociated cells were collected and centrifuged at 1,000 rpm for 4 min. The precipitate was resuspended in binding buffer (195 µL) plus Annexin V-FITC (5 µL) and incubated for 5 min, followed by 10-min staining of 10 µL propidium iodide (PI). The non-staining sample was used as a reference. After a gentle mix at room temperature and a dark environment, the ratio of cell death was detected via flow cytometry (FCM). […] The free dye was inclined to bind to DNA in the nucleus and emitted strong green fluorescence when DEVD dye was broken down by caspase-3. The fluorescence intensity was measured by FCM, which represented the activity of caspase-3.

HaCaT [6] = assay: Cell viability, CCK-8 assay; conditions: 2 h incubation
Experimental: (§2) Cells (1 × 10^4 cells per well) were seeded in a 96-well plate to reach approximately 80% confluence. Wells filled with DMEM alone served as positive controls (PCs). The culture medium of sample groups was replaced either by 100 μL of H2O2 or naked/FITC-labeled peptide solutions at different concentrations for a certain time of incubation, and non-treatment wells acted as negative controls (NCs). Then, the plate solutions were substituted with 100 μL of 10% CCK-8 solution per well and incubated for another 2 h, followed by an absorbance reading taken at 450 nm. The cell survival was determined according to the following formula: cell viability (%) = (ODsample − ODpc)/(ODnc − ODpc) × 100%.

HFF-1 = assay: Cell viability, CCK-8 assay; conditions: HFF-1, 2 h incubation
Experimental: as §2

[7] = porcine skin, Franz-type diffusion cells, 24 h, 37 °C, HPLC

In the case of RGDGHK [RGD-GHK], the elastase inhibition rate [1] is reported as “approximately 25%”, the “proteolytic stability against chymotrypsin, compared with GHK” value (chymotrypsin) is reported as “no significant difference in the proteolytic stability” and the “peptide detected in the receptor cell” value [2, 7] is reported as “approximately 5%”. The “peptide detected in the skin (skin retention)” value [2, 7] was 5% and the “hemolysis (RBCs lysed)” value (mouse red blood cells) was “less than 1%”.

With acetyl hexapeptide-8 [Wrinklend] the “COL-1 expression (immunofluorescence)” value [3] was “significantly suppressed COL-1 degradation” and the “COL-1 expression (immunofluorescence)” value [4] was “significantly suppressed COL-1 degradation”.

For OO [H2O2], the LDH leakage (HaCaT cells) was “over 37%”, the “ratio of early apoptosis” value (HaCaT [5]) was 28% and the “concentration with apparent cytotoxic effect” value (HaCaT [6]) was 1,600 μM. The “concentration with obvious cytotoxicity” value (HFF-1) was 800 µM.

Compound RKQRRERGHK [sOtx2-GHK] has an elastase inhibition rate [1] of about 20%.

In the case of CC(C)(C)C(=O)Oc1ccc(S(=O)(=O)Nc2ccccc2C(=O)NCC(=O)O)cc1 [Sivelestat, Sivelestat sodium salt hydrate, reference compound], the inhibition at 250 µM ([1]; 250 μM of Sivelestat (positive control), read-out: elastase inhibition rate) is reported as about 65%.

With NCCCC[C@H](NC(=O)[C@H](Cc1cnc[nH]1)NC(=O)CN)C(=O)O [GHK, tripeptide-1, reference compound] (H-Gly-His-Lys-OH) the “peptide detected in the receptor cell” value [2] was about 0.5% and the “peptide detected in the skin (skin retention)” value [2] was 2.7%.
